Key:
Cgs2 = molecular target: T1, Cgs2 (Schizosaccharomyces pombe, UniProt P36599); assay: fbp1-lacZ β-galactosidase assay, Cgs2 strain CHP861; assay type: cell-based; details: specific activity per milligram of soluble protein, average ± SD
T1 construct: the wild-type S. pombe Cgs2^+ PDE; endogenous in cells; host or cells: Schizosaccharomyces pombe strain CHP861
T1 sequence (P36599 1-346): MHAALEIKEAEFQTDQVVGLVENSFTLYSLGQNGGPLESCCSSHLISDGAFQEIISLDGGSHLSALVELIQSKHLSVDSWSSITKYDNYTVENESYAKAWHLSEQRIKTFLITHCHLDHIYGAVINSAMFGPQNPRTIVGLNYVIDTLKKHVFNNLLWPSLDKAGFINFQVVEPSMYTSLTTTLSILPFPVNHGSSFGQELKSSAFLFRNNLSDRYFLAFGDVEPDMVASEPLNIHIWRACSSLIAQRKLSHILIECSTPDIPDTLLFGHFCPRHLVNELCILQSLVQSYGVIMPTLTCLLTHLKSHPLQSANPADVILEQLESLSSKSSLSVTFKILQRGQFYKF
Description: (§1) β-galactosidase assays and characterization of 5FOA-sensitivity were carried out as previously described^10. cAMP assays were performed on exponential phase cells grown in EMM complete medium (3% glucose), using the Assay Designs cAMP EIA kit, according to manufacturer's instructions (Assay Designs, Ann arbor, MI).
(§2) The effect of known PDE inhibitors on the expression of the fbp1-lacZ fusion in murine PDE-expressing strains was tested. […] For Table 4 β-galactosidase activity was determined from 3 to 4 independent exponential phase cultures. The average±SD represents specific activity per milligram of soluble protein.

PDE8A [1] = molecular target: T2, PDE8A (Mus musculus, UniProt O88502); assay: fbp1-lacZ β-galactosidase assay, PDE8A strain DDP13; assay type: cell-based, murine; details: specific activity per milligram of soluble protein, average ± SD
T2 construct: targets used in the assays are full-length proteins (as opposed to simply the catalytic domain); expressed in transfected cells; host or cells: Schizosaccharomyces pombe strains DDP13 and CHP1141
T2 sequence (O88502 1-823): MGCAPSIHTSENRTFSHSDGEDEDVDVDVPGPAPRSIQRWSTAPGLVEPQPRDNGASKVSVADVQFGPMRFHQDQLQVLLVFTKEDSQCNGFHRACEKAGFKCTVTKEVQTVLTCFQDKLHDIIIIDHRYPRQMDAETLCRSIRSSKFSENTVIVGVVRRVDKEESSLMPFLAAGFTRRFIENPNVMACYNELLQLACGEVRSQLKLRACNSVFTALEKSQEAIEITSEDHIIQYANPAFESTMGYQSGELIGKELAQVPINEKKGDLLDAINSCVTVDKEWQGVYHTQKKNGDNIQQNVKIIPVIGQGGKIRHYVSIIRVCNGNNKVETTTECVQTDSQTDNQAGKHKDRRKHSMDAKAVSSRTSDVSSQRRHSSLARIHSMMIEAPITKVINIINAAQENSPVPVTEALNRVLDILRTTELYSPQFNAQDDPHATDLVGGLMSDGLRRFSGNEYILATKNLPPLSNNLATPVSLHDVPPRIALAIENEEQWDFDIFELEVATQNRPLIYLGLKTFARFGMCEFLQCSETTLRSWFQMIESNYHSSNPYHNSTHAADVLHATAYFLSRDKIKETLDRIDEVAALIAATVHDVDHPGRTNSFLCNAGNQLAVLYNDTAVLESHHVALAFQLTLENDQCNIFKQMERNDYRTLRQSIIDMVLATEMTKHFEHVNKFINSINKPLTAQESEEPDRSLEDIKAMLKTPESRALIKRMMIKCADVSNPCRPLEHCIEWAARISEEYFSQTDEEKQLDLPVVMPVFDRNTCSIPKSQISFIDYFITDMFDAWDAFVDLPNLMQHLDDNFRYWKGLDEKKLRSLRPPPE
Description: as §1, §2

PDE8A [2] = molecular target: T2, PDE8A; assay: cAMP assay in yeast strain CHP1141 expressing PDE8A; assay type: cell-based, murine; details: rolipram 20 and 200 μM, one-hour time point
Description: as §1
(§3) Thus, PDE inhibition can be indirectly quantitated by measuring the effect of a compound on cAMP levels in target yeast strains.

[3] = system: PDE2A, PDE4A, PDE4B, Cgs2; assay: High throughput 5FOA growth screens of bioactive libraries; assay type: cell-based, murine; Schizosaccharomyces pombe; details: average 20 μM; composite Z score cut-off ≧8.53
Description: High throughput drug screens were carried out at the Broad Institute's Chemical Biology Program screening facility (Broad Institute, Cambridge, Mass.). Depending upon the strain, cultures were pregrown to exponential phase in EMM complete medium containing from 0.5 to 2.5 mM cAMP to repress fbp1-ura4 transcription. […] Starting cell concentrations ranged from 0.5×10^5 to 4×10^5 cells/ml depending on the screening strain. […] Other positive control dishes contained 5 mM cAMP in the 5FOA medium. Cultures were grown for 48 hours at 30° C., sealed in an airtight container with moist paper towels to prevent evaporation. Optical densities (OD600) of cultures were measured using a microplate reader. Bioinformatic analysis of the results to determine composite Z scores was performed as previously described^30, 31.

PDE7A = molecular target: T3, PDE7A (Homo sapiens, UniProt Q13946); assay: cAMP assay in yeast strain expressing PDE7A; assay type: cell-based
T3 construct: targets used in the assays are full-length proteins (as opposed to simply the catalytic domain); expressed in transfected cells; host or cells: Schizosaccharomyces pombe, gene integrated at the cgs2 locus
T3 sequence (Q13946 whole entry, the tested form may be a part): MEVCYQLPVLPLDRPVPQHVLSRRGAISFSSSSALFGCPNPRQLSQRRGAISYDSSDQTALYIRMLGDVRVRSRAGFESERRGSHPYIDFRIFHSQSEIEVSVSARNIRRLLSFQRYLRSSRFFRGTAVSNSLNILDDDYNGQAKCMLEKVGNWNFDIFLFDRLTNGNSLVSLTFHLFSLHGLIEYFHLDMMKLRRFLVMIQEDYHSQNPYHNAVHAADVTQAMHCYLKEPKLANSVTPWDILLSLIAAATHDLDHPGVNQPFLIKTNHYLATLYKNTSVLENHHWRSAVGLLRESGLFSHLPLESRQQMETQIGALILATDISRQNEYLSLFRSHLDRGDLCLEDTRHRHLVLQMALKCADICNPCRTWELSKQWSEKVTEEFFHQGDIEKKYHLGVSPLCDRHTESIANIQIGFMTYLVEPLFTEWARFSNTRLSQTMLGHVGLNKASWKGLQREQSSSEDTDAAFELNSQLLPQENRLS

[4] = system: PDE4A, PDE4B, PDE4D, PDE7A; assay: Overall PDE inhibitor profile from the yeast assays (table footnotes, summary); assay type: cell-based
Excerpt: PDE inhibitors were identified using methods described herein, such as high throughput drug screens on genetically engineered fission yeast strains that express drug targets (e.g., PDE4A and/or PDE4B, which are anti-inflammatory targets). PDE inhibitors were identified based on their ability to stimulate growth and compounds were identified because they were effective in live cells. In addition, targets used in the assays are full-length proteins (as opposed to simply the catalytic domain) and the assay used included a built-in toxicity test, permeability test and stability test. The inhibitors identified display a very high degree of target specificity. Compounds identified include inhibitors that act on two of three PDE4 family enzymes and inhibitors that act on combinations of PDE4 and PDE7 strains. […] Limited inhibition of PDE4D by a PDE inhibitor is desirable, in view of the fact that inhibition of PDE4D causes emesis and cardiac arrhythmias. Subtype specificity was confirmed by means of cAMP assays.
Cells were pregrown in EMM medium [MP Biomedicals (Solon, OH), 3% glucose, filter-sterilized to avoid carmelization, which would introduce variability into the optical density of the medium] containing from 0 mM to 2.5 mM cAMP (or either 0.5 mM or 1.0 mM cGMP). This was to repress expression of the fbp1-ura4 reporter prior to exposure of cells to 5FOA medium. Cells were grown at 30° C. to exponential phase (approximately 10^7 cells/ml). Cells were collected by centrifugation and resuspended in 5FOA medium, and 25 μl were transferred to 384-well microtiter dishes (untreated, with flat clear bottoms) that had been pre-filled with 25 μl 5FOA medium and pre-pinned with 100 nl of compounds (stock solutions were generally 10 mM). Starting cell concentrations ranged from 0.5×10^5 to 4×10^5 cells/ml depending on the screening strain. […] Other positive control dishes contained 5 mM cAMP in the 5FOA medium for PDEs that lack appropriate control compounds. Cultures were grown for 48 hours at 30° C., sealed in an airtight container with moist paper towels to prevent evaporation. Optical densities (OD600) of cultures were measured using a microplate reader. Bioinformatic analysis of the results to determine composite Z scores was performed as previously described (1, 3).

PDE2A [5] = molecular target: T4, PDE2A (Mus musculus, UniProt Q922S4); assay: fbp1-lacZ β-galactosidase assay, PDE2A strain LWP367; assay type: cell-based, murine; details: specific activity per milligram of soluble protein, average ± SD
T4 construct: targets used in the assays are full-length proteins (as opposed to simply the catalytic domain); expressed in transfected cells; host or cells: Schizosaccharomyces pombe strains LWP367 and LWP371
T4 sequence (Q922S4 1-939): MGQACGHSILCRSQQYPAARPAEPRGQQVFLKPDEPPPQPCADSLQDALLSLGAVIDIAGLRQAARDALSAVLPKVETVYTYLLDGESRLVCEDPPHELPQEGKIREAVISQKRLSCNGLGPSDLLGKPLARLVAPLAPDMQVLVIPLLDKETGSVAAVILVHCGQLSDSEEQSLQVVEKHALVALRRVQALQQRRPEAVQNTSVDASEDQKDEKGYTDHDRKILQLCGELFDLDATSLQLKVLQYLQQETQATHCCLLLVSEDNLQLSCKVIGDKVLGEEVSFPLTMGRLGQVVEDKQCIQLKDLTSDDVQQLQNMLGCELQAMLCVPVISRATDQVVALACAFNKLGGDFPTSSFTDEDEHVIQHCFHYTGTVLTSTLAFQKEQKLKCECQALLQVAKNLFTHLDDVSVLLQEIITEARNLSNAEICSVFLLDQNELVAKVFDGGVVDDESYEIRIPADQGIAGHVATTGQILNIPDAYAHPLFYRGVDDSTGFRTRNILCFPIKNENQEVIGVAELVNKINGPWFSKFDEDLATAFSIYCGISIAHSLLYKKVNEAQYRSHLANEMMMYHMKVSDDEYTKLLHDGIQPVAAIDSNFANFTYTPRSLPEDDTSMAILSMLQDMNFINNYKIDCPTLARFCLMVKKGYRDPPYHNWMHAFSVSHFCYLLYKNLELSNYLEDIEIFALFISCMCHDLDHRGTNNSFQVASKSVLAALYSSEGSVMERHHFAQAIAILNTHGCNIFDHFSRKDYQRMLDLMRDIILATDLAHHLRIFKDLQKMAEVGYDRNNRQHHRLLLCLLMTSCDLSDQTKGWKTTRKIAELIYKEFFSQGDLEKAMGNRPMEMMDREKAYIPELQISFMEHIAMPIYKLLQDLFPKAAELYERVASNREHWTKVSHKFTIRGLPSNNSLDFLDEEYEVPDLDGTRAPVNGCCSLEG
Description: as §1, §2

PDE2A [6] = molecular target: T4, PDE2A; assay: cAMP assay in yeast strain LWP371 expressing PDE2A; assay type: cell-based, murine; details: 20 μM EHNA as compared to 200 μM, one-hour time point
Description: as §1, §3

## COc1ccc(C2CNC(=O)C2)cc1OC1CCCC1 (stereo not drawn) [Rolipram, rolipram]
Cgs2; 50 μM Rolipram
  β-galactosidase activity, Cgs2 strain: 1807 ± 446
Cgs2; 100 μM Rolipram
  β-galactosidase activity, Cgs2 strain: 1784 ± 429
PDE8A [1]; 50 μM Rolipram
  β-galactosidase activity, PDE8A strain: 253 ± 46
PDE8A [1]; 100 μM Rolipram
  β-galactosidase activity, PDE8A strain: 237 ± 67
PDE8A [2]
  cAMP levels in PDE8A strain on treatment: completely insensitive
[3]
  Result in high throughput screens for 5FOA-resistant growth: only affected the PDE4A- and PDE4B-expressing strains

## COc1ccc2c(c1)C1(C)CCC(=O)CC1CC2 (single isomer, unassigned) [Compound 11]
PDE7A
  cAMP Response (%BRL50481), PDE 7A: 89.00 %BRL50481
[4]
  PDE inhibitor profile in words (table footnote / summary): (3) Strong PDE7A inhibitor

## CCCCCC[C@@H]([C@@H](C)O)n1cnc2c(N)ncnc21 (racemic) [EHNA, erythro-9-(2-hydroxy-3-nonyl)adenine]
PDE2A [5]; 5 μM EHNA
  β-galactosidase activity, PDE2A strain: 473 ± 19
PDE2A [5]; 20 μM EHNA
  β-galactosidase activity, PDE2A strain: 197 ± 51
PDE2A [5]; 200 μM EHNA
  β-galactosidase activity, PDE2A strain: 45 ± 3
PDE2A [6]
  PDE2A inhibition judged by cAMP levels: partial inhibition

— patent publication US20100179158A1, “INHIBITORS OF CYCLIC AMP PHOSPHODIESTERASES” (priority 2007, published 2010)
